From the SangsterLogP compilation

Assay: method code SF-CR, from PMID: 5159517

logP: 0.41
SMILES: COc1cnc(NS(=O)(=O)c2ccc(N)cc2)nc1
